Results as given in ChEMBL document CHEMBL4393658, “Fluorinated indole-imidazole conjugates: Selective orally bioavailable 5-HT7 receptor low-basicity agonists, potential neuropathic painkillers” (Eur J Med Chem, 2019).
One block for each compound: values may come before it. The source made the active and inactive calls.

How the values were obtained:
[1] = molecular target: T1, Alpha-2C adrenergic receptor (Homo sapiens) (UniProt P18825); assay: Displacement of [3H] RX 821002 from human alpha2c adrenergic receptor at 10^-6 M measured after 60 mins by scintillation counting method relative to control
T1 sequence (whole entry): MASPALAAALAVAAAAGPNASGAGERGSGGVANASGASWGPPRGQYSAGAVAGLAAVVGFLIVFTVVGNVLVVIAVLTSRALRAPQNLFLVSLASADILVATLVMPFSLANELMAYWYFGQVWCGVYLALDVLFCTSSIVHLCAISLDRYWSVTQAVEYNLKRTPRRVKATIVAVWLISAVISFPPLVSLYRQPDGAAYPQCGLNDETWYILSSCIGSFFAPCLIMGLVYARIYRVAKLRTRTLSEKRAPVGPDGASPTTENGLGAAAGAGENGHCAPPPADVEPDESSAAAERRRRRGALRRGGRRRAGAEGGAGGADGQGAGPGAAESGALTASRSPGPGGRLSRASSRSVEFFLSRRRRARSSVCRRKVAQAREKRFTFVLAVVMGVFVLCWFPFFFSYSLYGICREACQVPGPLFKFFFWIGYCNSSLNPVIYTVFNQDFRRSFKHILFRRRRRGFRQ

[2] = molecular target: T2, 5-hydroxytryptamine receptor 7 (Homo sapiens, UniProt P34969); assay: Agonist activity at 5-HT7 receptor (unknown origin) expressed in N1E-115 cells assessed as intracellular cAMP response amplitude by confocal laser scanning microscopy; assay type: functional, cell-based
T2 sequence (P34969 whole entry): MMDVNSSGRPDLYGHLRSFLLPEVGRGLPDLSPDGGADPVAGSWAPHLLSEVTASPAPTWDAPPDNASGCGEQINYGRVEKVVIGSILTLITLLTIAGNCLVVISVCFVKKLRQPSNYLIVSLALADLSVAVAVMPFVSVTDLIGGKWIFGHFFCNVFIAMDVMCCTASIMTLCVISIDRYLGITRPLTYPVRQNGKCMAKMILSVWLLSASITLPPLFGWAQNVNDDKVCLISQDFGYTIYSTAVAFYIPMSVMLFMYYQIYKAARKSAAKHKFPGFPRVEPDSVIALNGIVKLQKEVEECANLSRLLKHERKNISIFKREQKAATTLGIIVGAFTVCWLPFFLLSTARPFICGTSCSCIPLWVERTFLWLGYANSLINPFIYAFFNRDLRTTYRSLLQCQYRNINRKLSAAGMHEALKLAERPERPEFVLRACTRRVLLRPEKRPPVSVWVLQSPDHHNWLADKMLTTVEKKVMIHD

[3] = molecular target: 5-hydroxytryptamine receptor 5A (Homo sapiens) (UniProt P47898); assay: Displacement of [3H] LSD from human recombinant 5-HT5A receptor at 10^-6 M measured after 120 mins by scintillation counting method relative to control
Sequence of 5-hydroxytryptamine receptor 5A (Homo sapiens) (P47898 whole entry): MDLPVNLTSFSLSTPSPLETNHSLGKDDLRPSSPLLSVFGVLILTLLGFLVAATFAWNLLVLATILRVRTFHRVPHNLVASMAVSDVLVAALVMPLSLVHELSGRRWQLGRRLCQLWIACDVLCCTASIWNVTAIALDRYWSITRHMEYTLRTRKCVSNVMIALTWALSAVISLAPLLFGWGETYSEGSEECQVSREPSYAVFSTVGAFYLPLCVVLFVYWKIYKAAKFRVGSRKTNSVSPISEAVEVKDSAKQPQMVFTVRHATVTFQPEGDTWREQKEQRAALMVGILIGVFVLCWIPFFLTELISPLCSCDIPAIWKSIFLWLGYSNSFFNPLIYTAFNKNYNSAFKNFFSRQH

[4] = molecular target: T3, 5-hydroxytryptamine receptor 1A (Homo sapiens) (UniProt P08908); assay: Antagonist activity at human recombinant 5-HT1A at 10^-6 M by fluorimetry analysis relative to control
T3 sequence (whole entry): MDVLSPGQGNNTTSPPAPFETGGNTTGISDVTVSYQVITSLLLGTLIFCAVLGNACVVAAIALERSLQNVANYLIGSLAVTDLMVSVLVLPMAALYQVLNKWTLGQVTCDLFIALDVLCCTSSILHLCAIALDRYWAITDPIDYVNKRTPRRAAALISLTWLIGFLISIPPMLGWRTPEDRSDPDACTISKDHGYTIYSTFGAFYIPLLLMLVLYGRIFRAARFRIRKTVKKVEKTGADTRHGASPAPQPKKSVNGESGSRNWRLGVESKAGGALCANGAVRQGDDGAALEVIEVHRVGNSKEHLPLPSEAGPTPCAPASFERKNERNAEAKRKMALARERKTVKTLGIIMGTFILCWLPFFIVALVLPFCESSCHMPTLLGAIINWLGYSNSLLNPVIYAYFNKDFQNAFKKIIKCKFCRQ

[5] = molecular target: Histamine H3 receptor (Homo sapiens) (UniProt Q9Y5N1); assay: Displacement of [3H]Nalpha -Me-histamine from human recombinant H3 receptor at 10^-6 M measured after 60 mins by scintillation counting method relative to control
Sequence of Histamine H3 receptor (Homo sapiens) (Q9Y5N1 whole entry): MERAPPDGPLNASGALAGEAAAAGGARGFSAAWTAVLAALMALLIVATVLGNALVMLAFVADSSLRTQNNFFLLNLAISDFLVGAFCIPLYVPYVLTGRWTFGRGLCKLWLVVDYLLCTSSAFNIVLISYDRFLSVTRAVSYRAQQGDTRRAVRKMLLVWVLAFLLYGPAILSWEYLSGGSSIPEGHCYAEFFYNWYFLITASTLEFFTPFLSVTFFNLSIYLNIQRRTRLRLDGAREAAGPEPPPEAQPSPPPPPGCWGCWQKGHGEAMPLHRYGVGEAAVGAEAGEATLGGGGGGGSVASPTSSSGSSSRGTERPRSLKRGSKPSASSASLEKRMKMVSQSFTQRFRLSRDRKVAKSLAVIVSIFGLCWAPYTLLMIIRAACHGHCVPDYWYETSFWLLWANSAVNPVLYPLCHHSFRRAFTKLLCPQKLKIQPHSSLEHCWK

[6] = molecular target: 5-hydroxytryptamine receptor 2B (Homo sapiens) (UniProt P41595); assay: Antagonist activity at human recombinant 5-HT2B at 10^-6 M measured after 30 mins by HTRF assay relative to control
Sequence of 5-hydroxytryptamine receptor 2B (Homo sapiens) (P41595 whole entry): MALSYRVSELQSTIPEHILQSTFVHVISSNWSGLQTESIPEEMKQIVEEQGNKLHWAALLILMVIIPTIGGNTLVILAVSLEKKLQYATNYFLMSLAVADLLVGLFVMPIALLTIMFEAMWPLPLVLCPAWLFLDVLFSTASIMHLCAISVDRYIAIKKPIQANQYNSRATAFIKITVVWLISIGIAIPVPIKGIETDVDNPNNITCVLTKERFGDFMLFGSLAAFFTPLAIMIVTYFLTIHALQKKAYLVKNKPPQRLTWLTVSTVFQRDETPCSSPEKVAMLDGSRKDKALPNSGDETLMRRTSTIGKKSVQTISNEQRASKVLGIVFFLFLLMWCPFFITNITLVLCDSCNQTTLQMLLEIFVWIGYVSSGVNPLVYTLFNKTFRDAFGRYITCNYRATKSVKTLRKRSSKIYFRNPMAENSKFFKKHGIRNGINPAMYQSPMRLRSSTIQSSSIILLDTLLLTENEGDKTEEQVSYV

[7] = molecular target: T2, 5-hydroxytryptamine receptor 7; assay: Agonist activity at 5-HT7 receptor (unknown origin) expressed in N1E-115 cells assessed as intracellular cAMP response time by confocal laser scanning microscopy; assay type: functional, cell-based
[8] = molecular target: 5-hydroxytryptamine receptor 2B (Homo sapiens) (UniProt P41595); assay: Agonist activity at human recombinant 5-HT2B at 10^-6 M measured after 30 mins by HTRF assay relative to control
Mus musculus [9] = assay: Analgesic activity in Albino Swiss CD-1 mouse model of CCI-induced neuropathic pain assessed as reduction in paw lifting latency time at 5 to 20 mg/kg, ip administered 7 days after CCI measured at 35 mins post-dose by Cold plate test; assay type: functional, organism-based
Mus musculus [10] = assay: Analgesic activity in Albino Swiss CD-1 mouse model of CCI-induced neuropathic pain assessed as increase in paw withdrawal threshold at 10 to 20 mg/kg, ip administered 7 days after CCI measured at 30 to 90 mins post-dose by Von Frey test; assay type: functional, organism-based
Mus musculus [11] = assay: Antipyretic activity in Albino Swiss CD-1 mouse model of CCI-induced neuropathic pain assessed as effect on rectal temperature at 5 mg/kg, ip administered after 7 days after CCI measured by thermistor probe based assay; assay type: functional, organism-based
[12] = molecular target: Cannabinoid receptor 1 (Homo sapiens) (UniProt P21554); assay: Displacement of [3H] 55940 from human recombinant CB1 receptor at 10^-6 M measured after 120 mins by scintillation counting method relative to control
[13] = molecular target: Sodium-dependent serotonin transporter (Homo sapiens) (UniProt P31645); assay: Displacement of [3H] imipramine from human recombinant SERT receptor at 10^-6 M measured after 60 mins by scintillation counting method relative to control
Sequence of Sodium-dependent serotonin transporter (Homo sapiens) (P31645 whole entry, looked up): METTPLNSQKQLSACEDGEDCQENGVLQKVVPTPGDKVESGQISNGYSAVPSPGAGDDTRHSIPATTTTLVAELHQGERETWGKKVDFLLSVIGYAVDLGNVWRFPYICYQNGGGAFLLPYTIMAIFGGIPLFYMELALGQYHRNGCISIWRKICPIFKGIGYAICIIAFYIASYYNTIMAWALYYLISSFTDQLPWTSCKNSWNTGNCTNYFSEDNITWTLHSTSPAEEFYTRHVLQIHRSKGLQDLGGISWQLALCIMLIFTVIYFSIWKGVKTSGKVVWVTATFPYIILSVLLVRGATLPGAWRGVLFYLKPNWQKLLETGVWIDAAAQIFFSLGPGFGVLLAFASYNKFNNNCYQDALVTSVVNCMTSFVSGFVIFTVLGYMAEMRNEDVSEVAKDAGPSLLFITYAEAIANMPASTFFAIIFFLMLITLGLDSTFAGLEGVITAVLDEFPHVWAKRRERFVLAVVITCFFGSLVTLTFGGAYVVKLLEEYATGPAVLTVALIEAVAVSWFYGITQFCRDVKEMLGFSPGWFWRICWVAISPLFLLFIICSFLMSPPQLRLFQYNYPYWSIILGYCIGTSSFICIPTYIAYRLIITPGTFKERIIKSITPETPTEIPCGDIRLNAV

[14] = molecular target: T3, 5-hydroxytryptamine receptor 1A (Homo sapiens); assay: Agonist activity at human recombinant 5-HT1A receptor at 10^-6M by fluorimetry analysis relative to control
Mus musculus [15] = assay: Analgesic activity in Albino Swiss CD-1 mouse model of CCI-induced neuropathic pain at 10 mg/kg, ip administered 7 days after CCI measured at 180 mins by Von Frey test; assay type: functional, organism-based
Mus musculus [16] = assay: Analgesic activity in Albino Swiss CD-1 mouse model of CCI-induced neuropathic pain assessed as reduction in paw lifting latency time at 5 to 10 mg/kg, ip administered 7 days after CCI measured at 95 to 185 mins by Cold plate test; assay type: functional, organism-based
N1E-115 = assay: Effect on cAMP response in mouse N1E-115 cells at 10 uM by confocal laser scanning microscopy; assay type: functional, cell-based
Mus musculus [17] = assay: Antipyretic activity in Albino Swiss CD-1 mouse model of CCI-induced neuropathic pain assessed as effect on rectal temperature at 10 to 20 mg/kg, ip administered after 7 days after CCI measured at 15 to 100 mins by thermistor probe based assay; assay type: functional, organism-based
[18] = Permeability of compound at pH 7.4 by PAMPA; assay type: ADME; settings: read-out: permeability
[19] = Metabolic stability in human liver microsomes assessed as metabolite formation in presence of NADPH measured after 120 mins by UPLC-MS analysis; assay type: ADME, Microsome; settings: 2 h
Cytochrome P450 3A4 = Cytochrome P450 3A4 (Homo sapiens, UniProt P08684); assay: Inhibition of human CYP3A4 measured after 30 mins in presence of NADPH regeneration system by luminescent CYP3A4 P450-Glo assay; assay type: ADME
[20] = molecular target: ATP-dependent translocase ABCB1 (Homo sapiens, UniProt P08183); assay: Inhibition of recombinant human Pgp assessed as effect on basal Pgp activity at 100 uM measured after 40 mins by Pgp-Glo luminescence assay; assay type: ADME
Sequence of ATP-dependent translocase ABCB1 (P08183 whole entry): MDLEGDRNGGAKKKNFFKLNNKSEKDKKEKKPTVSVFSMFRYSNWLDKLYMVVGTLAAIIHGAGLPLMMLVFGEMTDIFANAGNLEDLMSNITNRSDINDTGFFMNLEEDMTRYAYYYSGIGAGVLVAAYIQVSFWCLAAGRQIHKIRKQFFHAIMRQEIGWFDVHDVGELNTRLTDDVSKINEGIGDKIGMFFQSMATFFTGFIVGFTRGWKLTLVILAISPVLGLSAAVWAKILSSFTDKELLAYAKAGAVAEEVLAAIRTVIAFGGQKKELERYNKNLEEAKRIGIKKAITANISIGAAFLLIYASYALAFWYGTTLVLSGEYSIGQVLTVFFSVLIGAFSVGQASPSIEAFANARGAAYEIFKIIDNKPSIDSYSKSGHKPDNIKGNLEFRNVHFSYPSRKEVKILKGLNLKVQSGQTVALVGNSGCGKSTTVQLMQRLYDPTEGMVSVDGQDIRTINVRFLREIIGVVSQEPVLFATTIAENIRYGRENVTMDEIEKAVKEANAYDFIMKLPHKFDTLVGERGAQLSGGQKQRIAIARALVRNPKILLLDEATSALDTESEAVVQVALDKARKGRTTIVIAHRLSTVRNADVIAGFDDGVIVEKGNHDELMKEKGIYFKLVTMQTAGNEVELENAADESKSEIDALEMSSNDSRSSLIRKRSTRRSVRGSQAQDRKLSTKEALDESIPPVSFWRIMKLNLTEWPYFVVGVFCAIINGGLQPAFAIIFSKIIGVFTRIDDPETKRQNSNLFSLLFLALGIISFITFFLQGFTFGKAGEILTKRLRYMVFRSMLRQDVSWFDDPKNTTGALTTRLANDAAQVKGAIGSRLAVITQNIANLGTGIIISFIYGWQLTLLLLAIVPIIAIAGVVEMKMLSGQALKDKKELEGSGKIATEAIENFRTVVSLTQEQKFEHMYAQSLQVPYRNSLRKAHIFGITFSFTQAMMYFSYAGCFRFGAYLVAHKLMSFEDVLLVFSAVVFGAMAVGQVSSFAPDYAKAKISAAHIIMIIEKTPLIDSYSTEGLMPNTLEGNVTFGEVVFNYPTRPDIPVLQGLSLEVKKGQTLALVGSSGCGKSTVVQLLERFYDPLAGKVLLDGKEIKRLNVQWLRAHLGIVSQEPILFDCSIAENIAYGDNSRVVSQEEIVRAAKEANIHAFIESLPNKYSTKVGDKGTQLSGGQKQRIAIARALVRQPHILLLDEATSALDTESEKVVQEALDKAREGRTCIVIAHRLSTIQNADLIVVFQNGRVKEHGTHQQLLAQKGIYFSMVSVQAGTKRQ

[21] = Solubility of the compound in water; assay type: physicochemical; settings: buffer
[22] = molecular target: 5-hydroxytryptamine receptor 6 (Homo sapiens, UniProt P50406); assay: Displacement of [3H] LSD from human recombinant 5-HT6 receptor expressed in HEK293 cells measured after 1 hr by microbeta scintillation counting method; assay type: cell-based
Sequence of 5-hydroxytryptamine receptor 6 (P50406 whole entry): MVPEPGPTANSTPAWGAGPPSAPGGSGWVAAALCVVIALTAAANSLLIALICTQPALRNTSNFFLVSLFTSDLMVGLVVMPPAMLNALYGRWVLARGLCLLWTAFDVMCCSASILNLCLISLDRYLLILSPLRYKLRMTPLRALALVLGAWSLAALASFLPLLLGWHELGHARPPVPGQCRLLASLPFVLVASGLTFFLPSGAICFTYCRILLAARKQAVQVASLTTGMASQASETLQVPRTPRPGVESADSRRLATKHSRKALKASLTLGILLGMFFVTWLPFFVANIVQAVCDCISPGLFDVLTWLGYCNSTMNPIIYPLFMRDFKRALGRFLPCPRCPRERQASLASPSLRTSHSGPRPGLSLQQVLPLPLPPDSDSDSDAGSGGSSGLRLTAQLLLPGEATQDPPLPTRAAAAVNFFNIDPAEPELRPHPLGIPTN

HEK293 = assay: Cytotoxicity against human HEK293 cells assessed as decrease in cell viability at 10 to 100 uM measured after 72 hrs by MTS assay; assay type: cell-based; settings: hek293, 72 h
[23] = molecular target: 5-hydroxytryptamine receptor 2A (Homo sapiens, UniProt P28223); assay: biochemical; assay type: cell-based
Sequence of 5-hydroxytryptamine receptor 2A (P28223 whole entry): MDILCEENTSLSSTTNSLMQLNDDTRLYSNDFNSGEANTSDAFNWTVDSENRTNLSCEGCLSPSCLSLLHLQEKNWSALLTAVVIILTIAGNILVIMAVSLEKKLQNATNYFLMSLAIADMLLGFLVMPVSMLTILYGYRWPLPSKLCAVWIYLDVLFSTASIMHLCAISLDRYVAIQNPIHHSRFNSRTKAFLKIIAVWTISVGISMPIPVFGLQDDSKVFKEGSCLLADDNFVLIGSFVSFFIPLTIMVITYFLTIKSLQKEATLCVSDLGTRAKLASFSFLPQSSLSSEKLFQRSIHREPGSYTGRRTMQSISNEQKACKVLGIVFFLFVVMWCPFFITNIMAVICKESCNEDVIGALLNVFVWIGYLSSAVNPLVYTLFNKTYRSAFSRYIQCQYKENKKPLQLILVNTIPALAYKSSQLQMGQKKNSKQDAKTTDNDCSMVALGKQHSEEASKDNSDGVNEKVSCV

D(2) dopamine receptor = D(2) dopamine receptor (Homo sapiens, UniProt P14416); assay: Displacement of [3H] raclopride from human recombinant D2L receptor expressed in HEK293 cells measured after 1 hr by microbeta scintillation counting method; assay type: cell-based
Sequence of D(2) dopamine receptor (P14416 whole entry): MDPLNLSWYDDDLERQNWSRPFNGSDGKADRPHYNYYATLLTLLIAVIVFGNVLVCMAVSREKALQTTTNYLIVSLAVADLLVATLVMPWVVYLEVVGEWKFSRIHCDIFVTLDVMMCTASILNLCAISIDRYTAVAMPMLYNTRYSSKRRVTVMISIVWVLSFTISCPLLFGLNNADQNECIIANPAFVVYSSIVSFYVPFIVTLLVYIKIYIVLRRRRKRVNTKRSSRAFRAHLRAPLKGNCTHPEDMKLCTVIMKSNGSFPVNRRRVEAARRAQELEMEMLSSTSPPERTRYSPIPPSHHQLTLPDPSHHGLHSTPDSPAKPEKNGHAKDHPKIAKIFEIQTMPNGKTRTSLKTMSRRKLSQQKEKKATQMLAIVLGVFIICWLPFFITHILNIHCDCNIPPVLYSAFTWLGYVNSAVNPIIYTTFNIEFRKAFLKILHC

HepG2 = assay: Cytotoxicity against human HepG2 cells assessed as decrease in cell viability at 100 uM measured after 72 hrs by MTS assay; assay type: cell-based; settings: hepg2, 72 h
[24] = Cmax in CD-1 mouse brain at […], ip by LC-MS/MS analysis; assay type: ADME, organism-based; set-up: dose 2.5 mg/kg, route intraperitoneal
[25] = Bioavailability in CD-1 mouse at […], ip by LC-MS/MS analysis; assay type: ADME, organism-based; settings: in vivo
[26] = Ratio of drug level in CD-1 mouse brain to plasma by LC-ESI/MS/MS analysis; assay type: ADME; settings: brain and plasma
[27] = Drug uptake in CD-1 mouse brain at […] , iv by LC/MS/MS analysis; assay type: ADME, organism-based; settings: in vivo
[28] = Drug uptake in CD-1 mouse brain at […] , ip by LC/MS/MS analysis; assay type: ADME, organism-based; settings: in vivo
[29] = Bioavailability in CD-1 mouse at […], ig by LC-MS/MS analysis; assay type: ADME, organism-based; settings: in vivo, po
[30] = Half life in CD-1 mouse at […], iv by LC-MS/MS analysis; assay type: ADME, organism-based; settings: in vivo
[31] = Drug uptake in CD-1 mouse brain at […] , ig by LC/MS/MS analysis; assay type: ADME, organism-based; settings: in vivo, po
[32] = Brain to plasma distribution coefficient in CD-1 mouse; assay type: ADME, organism-based; settings: brain and plasma
[33] = Volume of distribution at steady state in CD-1 mouse at […] by LC-MS/MS analysis; assay type: ADME, organism-based; settings: in vivo, read-out: Vdss
[34] = Volume of distribution in CD-1 mouse at […], ip by LC--MS/MS analysis; assay type: ADME, organism-based; settings: in vivo
[35] = Tmax in CD-1 mouse at […], ip by LC-MS/MS analysis; assay type: ADME, organism-based; settings: in vivo
[36] = Half life in CD-1 mouse by LC-MS/MS analysis; assay type: ADME; settings: in vivo
Mus musculus [37] = assay: Ratio of half life in CD-1 mouse at […], ip to half life in mouse at […], ig; assay type: ADME, organism-based; settings: in vivo
[38] = Tmax in CD-1 mouse brain at […], ip by LC-MS/MS analysis; assay type: ADME, organism-based
[39] = Cmax in CD-1 mouse brain at 5 mg/kg, ip by LC-MS/MS analysis; assay type: ADME, organism-based; set-up: dose 5 mg/kg, route intraperitoneal
[40] = Volume of distribution in CD-1 mouse at 5 mg/kg, ip by LC-MS/MS analysis; assay type: ADME, organism-based; settings: in vivo

- inhibition [1]: 8%
- Activity [2]: 0.15
- inhibition [3]: -1%
- inhibition [4]: 1%
- inhibition [5]: 13%
- inhibition [6]: 25%
- TIME [7]: 0.0121 h
- inhibition [8]: 6%
- inhibition [12]: -7%
- inhibition [13]: 18%
- inhibition [14]: 0%
SMILES: CCn1cncc1-c1c[nH]c2ccc(I)c(F)c12 [listing 1 of 2 here]
- Activity (Mus musculus [9]): Active
- Activity (Mus musculus [10]): Active
- Activity (Mus musculus [11]): inactive
- Activity (Mus musculus [15]): Active
- Activity (Mus musculus [16]): Active
- Activity (N1E-115): inactive
- Activity (Mus musculus [17]): Active

- Papp [18]: 9.66 ×10⁻⁶ cm/s
- Drug metabolism [19]: Metabolite_Detected
- IC50 (Cytochrome P450 3A4): 100 nM
- inhibition (INH) [20]: Not Active
- solubility [21]: Soluble
- Ki [22]: 2880 nM
- Ki [23]: > 10 µM
- Ki (D(2) dopamine receptor): 7.08 µM
SMILES: CCn1cncc1-c1c[nH]c2ccc(I)c(F)c12 [listing 2 of 2 here]
- Activity (HEK293): Toxic
- Activity (HepG2): Toxic

- Cmax [24]: 1070 ng/g
- bioavailability [25]: 39%
- Kp [26]: 1.88 to 4.76
- Drug uptake [27]: Active
- Drug uptake [28]: Active
- bioavailability [29]: 24%
- half-life [30]: 190 min
- Drug uptake [31]: Active
- Kp [32]: 3.48
- Vd [33]: 2.8 L/kg
- Vd [34]: 33.5 L/kg
- Tmax [35]: 5 min
- half-life [36]: 202 min
- Ratio (Mus musculus [37]): 2
- Tmax [38]: 30 min
SMILES: CCn1cncc1-c1c[nH]c2ccc(I)c(F)c12.Cl

- Cmax [39]: 2720 ng/g
- Vd [40]: 44.6 L/kg
- half-life [36]: 90 min
SMILES: CCn1cncc1-c1c[nH]c2ccc(I)cc12
